Measured values from publication PMC9154192 (PLoS Biology, 2022).
Values after ≈ are worked out from the molar mass of the structure shown. Values joined by “and” are separate entries in the source; they are usually repeats but may differ in a detail not shown here. Identical values can stand only once. Like-named read-outs stand apart in the source and are kept apart here.

Experiments:
[1] = type: cell-based; settings: positive control
M. tuberculosis H37Ra = assay: microbe, parasite or virus in culture; type: cell-based, Mycobacterium tuberculosis; settings: Mycobacterium tuberculosis, H37RA
M. tuberculosis H37Rv = assay: microbe, parasite or virus in culture; type: cell-based, Mycobacterium tuberculosis; settings: for MIC: Mycobacterium tuberculosis, H37RV, read-out: MIC; for SI (CC50/MIC): ratio of CC50 for L929 fibroblasts to MIC for strain H37Rv
in vitro = type: cell-based, murine; settings: mouse
Experimental: A549 human pulmonary epithelial cells (KCLB 10185), human embryonic kidney (HEK) 293 cells (KCLB 21573), human THP-1 leukemia cells (KCLB 40202), human neuroblastoma SH-SY5Y cells (KCLB 22266), Murine Raw 264.7 macrophages (KCLB 40071), and L929 murine fibroblasts (KCLB 10001) were purchased from the KCLB (Seoul, Korea). Cytotoxicity testing was performed using the MTT assay and the WST-1 cell viability assay as previously described.

intestinal microbiome = assay: Gut microbiome, 16s rRNA gene-based metagenomics analysis of feces; type: in vivo, BALB/c mice; settings: 30 mg/kg oral once a day for 7 days, BALB/c mice, feces
Experimental: Six-week-old BALB/c female mice were used for this study (6 mice for each group). Each drug was administered orally at 30 mg/kg once daily for 7 days. Stool was collected, and 16 rRNA gene-based metagenomics analysis was performed. Corn oil was used as the vehicle. The drug-free group received corn oil only. This animal experiment was conducted with the approval of the IACUC of the Soonchunhyang University (approval number: SCH21-0011). Microbiome analysis of collected feces was carried out as previously described with some modifications. Total DNA was extracted from the stool using the QIAamp DNA stool mini kit (Qiagen, Germany) after mechanical disruption using lysing matrix B tubes (MP Biomedicals, USA). V4 region of 16S RNA gene was amplified from extracted DNA with the following primers: forward primer ([…]) and reverse primer ([…]). PCR was performed using the Kappa HiFi hot start kit (KAPA Biosystems, USA) for 16s gene amplification and library preparation. A dsDNA HS assay kit and Qubit 4 fluorimeter (Invitrogen, USA) were used for DNA quantification. After each step, quality was checked using Agilent High Sensitivity DNA Kit and Agilent Bioanalyzer 2100 (Agilent Technologies, USA). Clean-up was performed using AMPure XP beads (Beckman Coulter, UK). The metagenomic library was prepared using a Nextera XT DNA Library Prep Kit (Illumina, USA) and loaded into an iSeq-100 reagent cartridge (Illumina, USA) together with a PhiX Control library (Illumina, USA). A 300-bp paired-end sequencing was performed on an iSeq-100 platform (Illumina, USA). Sequencing data were analyzed using the EzBioCloud server (Chunlab, Korea).

[2] = TA98, 1.0 μg/plate, presence of S9 mix
[3] = TA100, 2.0 μg/plate, presence of S9 mix
[4] = TA1535, 3.0 μg/plate, presence of S9 mix
[5] = TA1537, 3.0 μg/plate, presence of S9 mix
[6] = WP2uvrA (pKM101), 2.0 μg/plate, presence of S9 mix
[7] = TA98, 5.0 μg/plate, absence of S9 mix

Row | Compound | MIC (M. tuberculosis H37Ra) [µg/mL] | MIC (M. tuberculosis H37Rv) [µg/mL] | CC50 (in vitro; L929, MTT assay (Table S1)) [µg/mL] | CC50 (in vitro; RAW, MTT assay (Table S1)) [µg/mL] | other results
1 | Nc1ccc2cc3ccccc3cc2c1 [2-AA] | – | – | – | – | Individual revertant colony counts [1, 2]: 402 colonies per plate and 414 colonies per plate; Mean revertant colonies [1, 2]: 408 colonies per plate; Individual revertant colony counts [1, 3]: 555 colonies per plate and 578 colonies per plate; Mean revertant colonies [1, 3]: 567 colonies per plate; Individual revertant colony counts [1, 4]: 96 colonies per plate and 103 colonies per plate; Mean revertant colonies [1, 4]: 100 colonies per plate; Individual revertant colony counts [1, 5]: 193 colonies per plate and 184 colonies per plate; Mean revertant colonies [1, 5]: 189 colonies per plate; Individual revertant colony counts [1, 6]: 409 colonies per plate and 430 colonies per plate; Mean revertant colonies [1, 6]: 420 colonies per plate
2 | COC(=O)c1cc2ccc(O)cc2c2cc(OC)c(OC)cc12 [DPGA4] | > 100 | > 100 | 34.9 (≈ 112 µM) | 37.5 (≈ 120 µM) | SI (CC50/MIC) (M. tuberculosis H37Rv): <0.3
3 | COC(=O)c1cc2ccc(OC3CCCCC3)cc2c2cc(OC)c(OC)cc12 [DPGA6] | > 100 | > 100 | > 100 | > 100 | –
4 | CCCCOc1ccc2cc(CN3C(=O)CC[C@@H]3C(=O)OC)c3cc(OC)c(OC)cc3c2c1 [PP2R] | > 100 | > 100 | – | – | –
5 | O=[N+]([O-])c1ccc2c(c1)Cc1ccccc1-2 [2-NF] | – | – | – | – | Individual revertant colony counts [1, 7]: 705 colonies per plate and 649 colonies per plate; Mean revertant colonies [1, 7]: 677 colonies per plate
6 | COC(=O)[C@H]1CCC(=O)N1Cc1cc2ccc(OC)cc2c2cc(OC)c(OC)cc12 [PP1R] | > 100 | > 100 | – | – | –
7 | COC(=O)[C@H]1CCC(=O)N1Cc1cc2ccc(OCc3ccccc3)cc2c2cc(OC)c(OC)cc12 [PP3R, Methyl (R)-1-{[3-(Benzyloxy)-6,7-dimethoxy-9-phenanthryl]methyl}-5-oxopyrrolidine-2-carboxylate] | > 100 | > 100 | – | – | –
8 | CCCCOc1ccc2cc(C(=O)OC)c3cc(OC)c(OC)cc3c2c1 [DPGA10] | > 100 | > 100 | 21.5 (≈ 58.4 µM) | > 100 | SI (CC50/MIC) (M. tuberculosis H37Rv): <0.2
9 | CN[C@H](CC(C)C)C(=O)N[C@H]1C(=O)N[C@@H](CC(N)=O)C(=O)N[C@H]2C(=O)N[C@H]3C(=O)N[C@H](C(=O)N[C@H](C(=O)O)c4cc(O)cc(O)c4-c4cc3ccc4O)[C@H](O)c3ccc(c(Cl)c3)Oc3cc2cc(c3O[C@@H]2O[C@H](CO)[C@@H](O)[C@H](O)[C@H]2O[C@H]2C[C@](C)(N)[C@H](O)[C@H](C)O2)Oc2ccc(cc2Cl)[C@H]1O [VAN, vancomycin] | – | – | – | – | beta set-significance analysis, pair-wise comparison of gut microbiome (intestinal microbiome): significant; difference in phylum or class level taxa compared to drug-free group (intestinal microbiome): significant differences; phylogenetic diversity compared to drug-free control group (intestinal microbiome): significantly decreased
